Structures can show the parent of a compound that is named as a salt.
Tested on: MTT (mouse pheochromocytoma)
Test: IC50 of cell viability (ATP content)
Settings: (24 or 48 h)
Outline: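 After overnight culture at 37°C, 5% CO2 in white 1536-well plates, MTT mouse pheochromocytoma cells were given 23 nl of library compound in DMSO by pintool across 8 concentrations, spanning final 0.5 nM to 46 µM. Following 24 or 48 hrs, CellTiter-Glo luminescence was read after 15 minutes and normalised against positive-control (100%) and DMSO (0%) wells. A four-parameter logistic model provided the IC50.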

Row | SMILES | IC50 of cell viability [µM]
1 | CC(=O)N1CCN(c2ccc(OC[C@@H]3CO[C@@](Cn4ccnc4)(c4ccc(Cl)cc4Cl)O3)cc2)CC1 [Ketoconazole] | > 46
2 | C[C@@H](C(=O)O)c1cccc(C(=O)c2ccccc2)c1 [Ketoprofen] | > 46
3 | O=C(c1ccccc1)c1ccc2n1CCC2C(=O)O (configuration not stated) [Ketorolac tris salt] | > 46
4 | NC(CO)(CO)CO.O=C(c1ccccc1)c1ccc2n1CC[C@H]2C(=O)O [Ketorolac tromethamine] | > 46
5 | COC1=C2O\C(=C/C(=O)C2=C(OC)C3=C1OC=C3)C [Khellin] | > 46
6 | O=C1C=C(CO)OCC1=O [Kojic acid] | > 46
7 | N[C@@H](Cc1ccc(O)c(O)c1)C(=O)O [L-3,4-DIHYDROXYPHENYL-ALANINE] | > 46
8 | O=C(CO)[C@@H](O)[C@H](O)[C@@H](O)CO [L-(-)-Sorbose] | > 46
9 | O=C1O[C@H]([C@@H](O)CO)C(O)=C1O [L-Ascorbic acid] | > 46
10 | N[C@@H](CCC(=O)O)C(=O)O [L-GLUTAMIC ACID] | > 46
11 | Cl.N[C@@H](Cc1c[nH]cn1)C(=O)O [L-Histidine hydrochloride] | > 46
12 | CC(=O)O[C@H]1C[C@H](O[C@H]2[C@@H](O)CC(O[C@H]3[C@@H](O)C[C@H](O[C@H]4CC[C@@]5(C)[C@H](CC[C@@H]6[C@@H]5CC[C@]5(C)[C@@H](C7=CC(=O)OC7)CC[C@]65O)C4)O[C@@H]3C)O[C@@H]2C)O[C@H](C)[C@H]1O[C@@H]1O[C@H](CO)[C@@H](O)[C@H](O)[C@H]1O (some centres not stated) [LANATOSIDE A] | > 46
13 | CC1O[C@@H](CC(O)[C@H]1O[C@H]2CC(O)[C@@H](O[C@H]3CC(OC(C)=O)[C@H](O[C@H]4OC(CO)C(O)C(O)C4O)[C@@H](C)O3)C(C)O2)OC5CC[C@]6(C)C(CCC7C6CC(O)[C@@]8(C)C(CC[C@@]78O)\C9=C\C(=O)OC9)C5 (some centres not stated) [LANATOSIDE C] | > 46
14 | N#C/C(=C1/SCC(c2ccccc2Cl)S1)n1ccnc1 (configuration not stated) [LANOCONAZOLE] | > 46
15 | C[C@H](CN1CCCC1)C(=O)c1ccc(C(F)(F)F)cc1 [LANPERISONE HYDROCHLORIDE] | > 46
16 | C[S+](=O)([O-])CCNCc1ccc(-c2ccc3ncnc(Nc4ccc(OCc5cccc(F)c5)c(Cl)c4)c3c2)o1 [LAPATINIB TOSILATE HYDRATE] | > 46
17 | CN(C)[C@@H](Cc1ccccc1)c1ccccc1 [LEFETAMINE HYDROCHLORIDE] | > 46
18 | COC(=O)\C1=C(/C)N\C(=C(/C1C2=C(Cl)C(=CC=C2)Cl)C(=O)OC(C)C)COC(N)=O (configuration not stated) [LEMILDIPINE] | > 46
19 | Nc1cccc2c1CN(C1CCC(=O)NC1=O)C2=O (configuration not stated) [LENALIDOMIDE] | > 46
20 | COC(=O)C1=C(C)NC(C)=C(C(=O)OC(C)(C)CN(C)CCC(c2ccccc2)c2ccccc2)C1c1cccc([N+](=O)[O-])c1 (configuration not stated) [LERCANIDIPINE HYDROCHLORIDE] | > 46
21 | C=CCN1CC[C@]23CCCCC2[C@H]1Cc1ccc(O)cc13 (some centres not stated) [LEVALLORPHAN] | > 46
22 | Clc1cccc(C(c2ccc3nc[nH]c3c2)n2ccnc2)c1 (configuration not stated) [LIAROZOLE] | > 46

Row | SMILES | IC50 of cell viability [µM]
23 | CC1(C)OC2CC(=O)OC[C@@]23C1CC(=O)[C@]1(C)C3CC[C@@]2(C)C(c3ccoc3)OC(=O)C3O[C@@]321 (some centres not stated) [LIMONIN] | > 46
24 | ClC1C(Cl)C(Cl)C(Cl)C(Cl)C1Cl (configuration not stated) [LINDANE] | > 46
25 | O=C(O)COc1ccc(CCN[S+](=O)([O-])c2ccccc2)s1 [LINOTROBANUM] | > 46
26 | O=C(O)Cn1c(C(=O)Nc2nc(-c3ccccc3Cl)cs2)cc2ccccc21 [LINTITRIPTUM] | > 46
27 | CN1[C@@H](CC(=O)c2ccccc2)CCC[C@H]1C[C@H](O)c1ccccc1 [LOBELINE] | > 46
28 | O=C([O-])c1ccccc1Nc1cc(Cl)ccc1C(=O)[O-] [LOBENZARIT DISODIUM] | > 46
29 | Cc1cccc(C)c1OCC(=O)N[C@@H](Cc1ccccc1)[C@@H](O)C[C@H](Cc1ccccc1)NC(=O)[C@H](C(C)C)N1CCCNC1=O [LOPINAVIR] | > 46
30 | N\C1=N\C2=C(N(CC=C)C(=O)N2C3OC(CO)C(O)C3O)/C(=O)N1 (configuration not stated) [LOXORIBINUM] | > 46
31 | N#C/C(=C1/SC[C@@H](c2ccc(Cl)cc2Cl)S1)n1ccnc1 [LULICONAZOLE] | > 46
32 | CC1=C[C@@H](O)CC(C)(C)[C@@H]1/C=C/C(C)=C/C=C/C(C)=C/C=C/C=C(C)/C=C/C=C(C)/C=C/C1=C(C)C[C@H](O)CC1(C)C [LUTEIN] | > 46
33 | CCCN1CCC[C@@H]2Cc3nc(N)ncc3C[C@H]21 [LY-163,502] | > 46
34 | CC(C)=CCC/C(C)=C/C=C/C(C)=C/C=C/C(C)=C/C=C/C=C(C)/C=C/C=C(C)/C=C/C=C(\C)CCC=C(C)C [LYCOPENE] | > 46
35 | C[C@@H](CCc1ccccc1)NC[C@H](O)c1ccc(O)c(C(N)=O)c1 [Labetalol hydrochloride] | > 46
36 | CC(O)C(=O)O (configuration not stated) [Lactic acid] | > 46
37 | O=C(O)[C@@H](O)[C@@H](O)[C@@H](O[C@@H]1O[C@@H](CO)[C@@H](O)[C@@H](O)[C@H]1O)[C@@H](O)CO [Lactobionic acid] | > 46
38 | Nc1ccn([C@@H]2CS[C@H](CO)O2)c(=O)n1 [Lamivudine] | > 46
39 | Nc1nnc(-c2cccc(Cl)c2Cl)c(N)n1 [Lamotrigine] | > 46
40 | CC(=O)OC1CC(OC2C(O)CC(OC3C(O)CC(O[C@H]4CC[C@]5(C)C6CC[C@]7(C)[C@@H](C8=CC(=O)OC8)[C@@H](O)C[C@]7(O)[C@@H]6CC[C@@H]5C4)OC3C)OC2C)OC(C)C1OC1OC(CO)C(O)C(O)C1O (some centres not stated) [Lanatoside B] | > 46
41 | Cc1c(OCC(F)(F)F)ccnc1C[S+]([O-])c1nc2ccccc2[nH]1 (configuration not stated) [Lansoprazole] | > 46
42 | Cc1oncc1C(=O)Nc1ccc(C(F)(F)F)cc1 [Leflunomide] | > 46
43 | N#Cc1ccc(C(c2ccc(C#N)cc2)n2cncn2)cc1 [Letrozole] | > 46
44 | CC1(C)Oc2ccc(C#N)cc2[C@@H](N2CCCC2=O)[C@@H]1O [Levcromakalim] | > 46

Second part, the compound after the results:

Row | IC50 of cell viability [µM] | SMILES
45 | > 46 | N=C(N)NCCC[C@H](N)C(=O)O [L-Arginine]
46 | > 46 | CCOC(=O)[C@@H](N)CS [L-CYSTEINE ETHYLESTER HYDROCHLORIDE]
47 | > 46 | CNC(=N)NCCC[C@H](N)C(=O)O [L-NMMA]
48 | > 46 | OCC1O[C@H](OC2C(CO)O[C@@](O)(CO)C2O)C(O)C(O)C1O (some centres not stated) [LACTULOSE]
49 | > 46 | O=C(CS(=O)Cc1ccco1)NC/C=C/COc1cc(CN2CCCCC2)ccn1 (configuration not stated) [LAFUTIDINE]
50 | > 46 | CCCCCCCCCCCC(=O)N(CCO)CCO [LAURIC DIETHANOLAMIDE]
51 | > 46 | CCCCCCCCCCCCOCCCN [LAURIXAMINUM]
52 | > 46 | NCCNC(=O)c1ccc(Cl)cn1 [LAZABEMIDE HYDROCHLORIDE]
53 | > 46 | COC(=O)CC[C@H](N)C(=O)O [LEUCIGLUMERUM]
54 | > 46 | CCN(CC)CC(=O)Nc1c(C)cccc1C [LIDOCAINE]
55 | > 46 | CC/C=C\C/C=C\C/C=C\CCCCCCCC(=O)O [LINOLENIC ACID]
56 | > 46 | O=NN(CCCl)C(=O)NC1CCCCC1 [LOMUSTINE]
57 | > 46 | CCOC(=O)N1CCC(=C2c3ccc(Cl)cc3CCc3cccnc32)CC1 [LORATADINE]
58 | > 46 | CCCCCN(CCCCC)C(=O)C(CCC(=O)[O-])NC(=O)c1ccc(Cl)c(Cl)c1.[Na+] (configuration not stated) [LORGLUMIDE SODIUM]
59 | > 46 | CCCCc1nc(Cl)c(CO)n1Cc1ccc(-c2ccccc2-c2nnn[nH]2)cc1 [LOSARTAN]
60 | > 46 | CCCCN(CCCC)CC(O)c1cc(Cl)cc2c1-c1ccc(Cl)cc1/C2=C/c1ccc(Cl)cc1 (configuration not stated) [LUMEFANTRINE]
61 | > 46 | CCOC(=O)C1=C(C)NC(C)=C(C(=O)OCC)C1c1ccccc1/C=C\C(=O)OC(C)(C)C [Lacidipine]
62 | > 46 | OC[C@@H](O)C(O[C@@H]1O[C@@H](CO)[C@H](O)[C@H](O)[C@H]1O)[C@H](O)[C@@H](O)CO (some centres not stated) [Lactitol]
63 | > 46 | CC1(C)OC[C@@H](COC(=O)CCc2ccc(OC[C@@H](O)CNCCNC(=O)N3CCOCC3)cc2)O1 [Landiolol Hydrochloride]
64 | > 46 | CC1(C)OC[C@@H](COC(=O)CCc2ccc(OC[C@@H](O)CNCCNC(=O)N3CCOCC3)cc2)O1 [Landiolol]
65 | > 46 | O=C(CCCN1CCC(C(=O)c2ccc(F)cc2)CC1)c1ccc(F)cc1 [Lenperone]
66 | > 46 | CCNC(=O)[C@H]1CCCN1C(=O)[C@H](CCCNC(=N)N)NC(=O)[C@H](CC(C)C)NC(=O)[C@H](CC(C)C)NC(=O)[C@@H](Cc1ccc(O)cc1)NC(=O)[C@H](CO)NC(=O)[C@@H](Cc1c[nH]c2ccccc12)NC(=O)[C@H](Cc1c[nH]cn1)NC(=O)[C@@H]1CCC(=O)N1 [Leuprolide acetate salt]
67 | > 46 | CCCCN1CCCC[C@H]1C(=O)Nc1c(C)cccc1C [Levobupivacaine hydrochloride]

Source: the supplement of paper PMC3974653
